Results: patent US10544106B2, “Certain chemical entities, compositions, and methods” (NeuPharma, Inc., priority 2016, dated 2020)

Target: BTK (Homo sapiens (Human), UniProt Q06187)
Assay: Z'-LYTE kinase inhibition assay against BTK
Assay type: biochemical
Settings: for inhibition at 0.1 µM: compound at 100 nM, ATP concentration at Km; for IC50: series of concentrations, GraphPad Prism 5
Outline: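 Compounds were titrated over 10 points (3-fold steps, 1% DMSO) against BTK (1.04-10.4 ng) using Tyr 01 substrate at 2 μM and ATP at Km, pH 7.5 HEPES buffer with MgCl2 and EGTA. After one hour each of reaction and development at room temperature, fluorescence gave percent inhibition and IC50.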

Sequence of BTK (Q06187 whole entry): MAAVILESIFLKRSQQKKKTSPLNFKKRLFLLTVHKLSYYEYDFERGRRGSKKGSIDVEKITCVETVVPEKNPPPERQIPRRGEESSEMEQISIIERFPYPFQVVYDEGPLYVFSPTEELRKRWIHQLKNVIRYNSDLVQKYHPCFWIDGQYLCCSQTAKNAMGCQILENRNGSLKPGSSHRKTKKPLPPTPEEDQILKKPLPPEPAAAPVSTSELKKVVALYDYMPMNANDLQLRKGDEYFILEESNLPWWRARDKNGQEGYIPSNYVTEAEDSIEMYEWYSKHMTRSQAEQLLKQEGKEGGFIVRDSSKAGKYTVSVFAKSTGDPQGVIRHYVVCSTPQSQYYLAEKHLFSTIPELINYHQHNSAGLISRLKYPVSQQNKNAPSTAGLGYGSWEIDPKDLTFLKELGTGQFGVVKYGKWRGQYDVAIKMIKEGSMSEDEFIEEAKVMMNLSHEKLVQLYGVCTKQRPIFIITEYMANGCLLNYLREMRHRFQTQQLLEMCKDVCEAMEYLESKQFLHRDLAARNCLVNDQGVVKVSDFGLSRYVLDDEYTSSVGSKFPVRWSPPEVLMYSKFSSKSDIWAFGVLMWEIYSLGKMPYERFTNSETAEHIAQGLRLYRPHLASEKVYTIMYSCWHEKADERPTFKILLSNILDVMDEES

inhibition at 0.1 µM [%] | IC50 [nM] | Compound
< 50 |  | C=CC(=O)Nc1cccc(-c2cc(-c3ccc(C(=O)Nc4cc(C#N)ccn4)cc3)c(N)c3cncnc23)c1 [C176, 4-(8-(3-acrylamidophenyl)-5-aminoquinazolin-6-yl)-N-(4-cyanopyridin-2-yl)benzamide]
< 50 |  | C=CC(=O)Nc1cccc(-c2cc(-c3ccc(C(=O)Nc4ccccn4)cc3F)c(N)c3cncnc23)c1 [C177, 4-(8-(3-acrylamidophenyl)-5-aminoquinazolin-6-yl)-3-fluoro-N-(pyridin-2-yl)benzamide]
< 50 | > 100 | C=CC(=O)Nc1cccc(-c2cc(-c3ccc(Oc4cc(C(F)(F)F)ccn4)cc3F)c(N)c3cncnc23)c1 [C187, N-(3-(5-amino-6-(2-fluoro-4-((4-(trifluoromethyl)pyridin-2-yl)oxy)phenyl)quinazolin-8-yl)phenyl)acrylamide]
> 50 | < 100 | C=CC(=O)Nc1cccc(-c2cc(-c3ccc(C(=O)Nc4ccccn4)cc3Cl)c(N)c3cncnc23)c1 [C190, 4-(8-(3-acrylamidophenyl)-5-aminoquinazolin-6-yl)-3-chloro-N-(pyridin-2-yl)benzamide]
> 50 | < 100 | C=CC(=O)Nc1cccc(-c2cc(-c3ccc(Oc4cc(C5CC5)ccn4)cc3F)cc3cncnc23)c1 [C198, N-(3-(6-(4-((4-cyclopropylpyridin-2-yl)oxy)-2-fluorophenyl)quinazolin-8-yl)phenyl)acrylamide]
> 50 |  | C=CC(=O)Nc1cccc(-c2cc(-c3ccc(C(=O)Nc4cc(C5CC5)ccn4)cc3Cl)c(N)c3cncnc23)c1 [C200, 4-(8-(3-acrylamidophenyl)-5-aminoquinazolin-6-yl)-3-chloro-N-(4-cyclopropylpyridin-2-yl)benzamide]
> 50 |  | C=CC(=O)Nc1cccc(-c2cc(-c3ccc(C(=O)Nc4cc(C5CC5)ccn4)cc3F)c(N)c3cncnc23)c1 [C202, 4-(8-(3-acrylamidophenyl)-5-aminoquinazolin-6-yl)-N-(4-cyclopropylpyridin-2-yl)-3-fluorobenzamide]
> 50 |  | C=CC(=O)Nc1cccc(-c2cc(-c3ccc(Oc4ccccn4)cc3Cl)c(N)c3cncnc23)c1 [C203, N-(3-(5-amino-6-(2-chloro-4-(pyridin-2-yloxy)phenyl)quinazolin-8-yl)phenyl)acrylamide]

The next lines start with the molecule.

Compound | inhibition at 0.1 µM [%] | IC50 [nM]
C=CC(=O)Nc1cccc(-c2cc(-c3ccc(C(=O)Nc4ccccn4)cc3)c(N)c3cnc(N)nc23)c1 [C178, 4-(8-(3-acrylamidophenyl)-2,5-diamino-quinazolin-6-yl)-N-(pyridin-2-yl)benzamide] | < 50 | 
C=CC(=O)Nc1cccc(-c2cc(-c3ccc(Oc4ccccn4)cc3)c(N)c3cncnc23)c1 [C179, N-(3-(5-amino-6-(4-(pyridin-2-yloxy)phenyl)quinazolin-8-yl)phenyl)acrylamide] | < 50 | 
C=CC(=O)Nc1cccc(-c2cc(-c3ccc(Oc4cc(C(F)(F)F)ccn4)cc3F)cc3cncnc23)c1 [C180] | > 50 | 
C=CC(=O)N1CCC(c2cc(-c3ccc(Oc4ccccn4)cc3)c(N)c3cncnc23)C1 (centres unmarked) [C181, 1-(3-(5-amino-6-(4-(pyridin-2-yloxy)phenyl)quinazolin-8-yl)pyrrolidin-1-yl)prop-2-en-1-one] | < 50 | 
C=CC(=O)Nc1cccc(-c2cc(-c3ccc(Oc4ccccc4)cc3)c(N)c3cncnc23)c1 [C182, N-(3-(5-amino-6-(4-phenoxyphenyl)quinazolin-8-yl)phenyl)acrylamide] | < 50 | 
C=CC(=O)Nc1cccc(-c2cc(-c3ccc(Oc4cc(C(F)(F)F)ccn4)cc3)c(N)c3cncnc23)c1 [C188, N-(3-(5-amino-6-(4-((4-(trifluoromethyl)pyridin-2-yl)oxy)phenyl)quinazolin-8-yl)phenyl)acrylamide] | < 50 | > 100
C=CC(=O)Nc1cccc(-c2cc(-c3ccc(Oc4cc(C#N)ccn4)cc3F)cc3cncnc23)c1 [C189, N-(3-(6-(4-((4-cyanopyridin-2-yl)oxy)-2-fluorophenyl)quinazolin-8-yl)phenyl)acrylamide] | > 50 | < 100
C=CC(=O)Nc1cccc(-c2cc(-c3ccc(Oc4cc(C(N)=O)ccn4)cc3)cc3cncnc23)c1 [C191, 2-(4-(8-(3-acrylamidophenyl)quinazolin-6-yl)phenoxy)isonicotinamide] | > 50 | < 100
C=CC(=O)N1CCC(c2cc(-c3ccc(Oc4ccccc4)cc3)c(N)c3cncnc23)C1 (centres unmarked) [C192, 1-(3-(5-amino-6-(4-phenoxyphenyl)quinazolin-8-yl)pyrrolidin-1-yl)prop-2-en-1-one] | < 50 | > 100
C=CC(=O)N1CCC(c2cc(-c3ccc(Oc4cc(C(F)(F)F)ccn4)cc3)c(N)c3cncnc23)C1 (centres unmarked) [C193, 1-(3-(5-amino-6-(4-((4-(trifluoromethyl)pyridin-2-yl)oxy)phenyl)quinazolin-8-yl)pyrrolidin-1-yl)prop-2-en-1-one] | < 50 | > 100
C=CC(=O)Nc1cccc(-c2cc(-c3ccc(Oc4cc(C(N)=O)ccn4)cc3F)cc3cncnc23)c1 [C194, 2-(4-(8-(3-acrylamidophenyl)quinazolin-6-yl)-3-fluorophenoxy)isonicotinamide] | > 50 | < 100
C=CC(=O)N1CCC(c2cc(-c3ccc(Oc4cc(C(F)(F)F)ccn4)cc3F)c(N)c3cncnc23)C1 (centres unmarked) [C195, 1-(3-(5-amino-6-(2-fluoro-4-((4-(trifluoro-methyl)pyridin-2-yl)oxy)phenyl)quinazolin-8-yl)pyrrolidin-1-yl)prop-2-en-1-one] | < 50 | > 100
C=CC(=O)Nc1cccc(-c2cc(-c3ccc(C(=O)Nc4ccccn4)cc3C#N)cc3cncnc23)c1 [C201, 4-(8-(3-acrylamidophenyl)quinazolin-6-yl)-3-cyano-N-(pyridin-2-yl)benzamide] | > 50 | < 100
CC#CC(=O)N1CCC(c2nc(-c3ccc(C(=O)Nc4ccccn4)cc3)n3c(N)ncnc23)C1 (centres unmarked) [C205, 4-(4-amino-8-(1-(but-2-ynoyl)pyrrolidin-3-yl)imidazo[1,5-a][1,3,5]triazin-6-yl)-N-(pyridin-2-yl)benzamide] | > 50 | 
C=CC(=O)N1CCC(c2nc(-c3ccc(Oc4cc(C(F)(F)F)ccn4)c(F)c3)n3c(N)nccc23)C1 (centres unmarked) [C206, 1-(3-(5-amino-3-(3-fluoro-4-((4-(trifluoro-methyl)pyridin-2-yl)oxy)phenyl)imidazo[1,5-c]pyrimidin-1-yl)pyrrolidin-1-yl)prop-2-en-1-one] | > 50 | < 100
CC#CC(=O)N1CCC(c2nc(-c3ccc(Oc4cc(C(F)(F)F)ccn4)c(F)c3)n3c(N)nccc23)C1 (centres unmarked) [C207, 1-(3-(5-amino-3-(3-fluoro-4-((4-(trifluoro-methyl)pyridin-2-yl)oxy)phenyl)imidazo[1,5-c]pyrimidin-1-yl)pyrrolidin-1-yl)but-2-yn-1-one] | > 50 | 
C=CC(=O)N1CCC(c2nc(-c3ccc(Oc4ccccn4)c(F)c3)n3c(N)nccc23)C1 (centres unmarked) [C208, 1-(3-(5-amino-3-(3-fluoro-4-(pyridin-2-yloxy)phenyl)imidazo[1,5-c]pyrimidin-1-yl)pyrrolidin-1-yl)prop-2-en-1-one] | > 50 | < 100
